The results in this text go back to patent US20240116985A1, “STAPLED PEPTIDES AND METHODS THEREOF” (priority 2020, published 2024).

Series [1] deals with T1, full-length beta-Catenin (Uniprot ID P35222) (Homo sapiens, UniProt P35222).
T1 construct: 10 nM full-length beta-Catenin (Uniprot ID P35222)
T1 sequence (P35222 1-781): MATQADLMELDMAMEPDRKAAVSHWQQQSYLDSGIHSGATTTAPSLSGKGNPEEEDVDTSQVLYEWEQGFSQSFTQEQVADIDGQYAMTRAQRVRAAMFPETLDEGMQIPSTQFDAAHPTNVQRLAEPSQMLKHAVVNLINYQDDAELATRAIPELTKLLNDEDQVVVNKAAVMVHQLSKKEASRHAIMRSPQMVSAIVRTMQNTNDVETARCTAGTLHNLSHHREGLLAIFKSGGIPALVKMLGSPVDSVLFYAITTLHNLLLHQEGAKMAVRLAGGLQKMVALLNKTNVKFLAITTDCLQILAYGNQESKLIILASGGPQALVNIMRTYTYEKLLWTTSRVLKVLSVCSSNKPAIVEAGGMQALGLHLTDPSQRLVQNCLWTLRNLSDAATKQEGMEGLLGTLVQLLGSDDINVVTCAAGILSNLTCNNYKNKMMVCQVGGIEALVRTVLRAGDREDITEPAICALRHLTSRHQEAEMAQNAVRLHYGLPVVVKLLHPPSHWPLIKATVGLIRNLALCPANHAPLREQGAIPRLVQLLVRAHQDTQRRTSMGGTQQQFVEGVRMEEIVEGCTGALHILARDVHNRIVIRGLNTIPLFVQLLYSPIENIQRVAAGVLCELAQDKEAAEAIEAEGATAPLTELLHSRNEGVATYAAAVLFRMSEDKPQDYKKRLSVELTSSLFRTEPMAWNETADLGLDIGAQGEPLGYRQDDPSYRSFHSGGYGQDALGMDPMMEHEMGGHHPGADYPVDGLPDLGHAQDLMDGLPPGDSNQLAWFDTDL
Nature of the series: Fluorescence polarization IC50 (beta-catenin / 5FAM-TCF4 10-53 competition). The series is classed as binding. A general note: Fluorescence polarisation rises when a labelled molecule tumbles more slowly, as on binding a larger partner.

A short description of the next series: CHI Log D procedure. It counts as physicochemical. The settings on record: for CHI Log D: pH 7.4; for chromatographic logD: pH 7.4, CHI Log D.
The nature of a further series: Solubility in PBS. The series is classed as physicochemical. The procedure, abridged:
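Read-out is the HPLC peak area of the supernatant from ultracentrifuged PBS solution, scaled against a 50 μM peptide DMSO injection; value reported as [(PBS area)/(DMSO area)]*50 uM.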

[2] abbreviates: fluorescence polarization, read-out: beta-Catenin FP IC50.

≈ marks a conversion by molar mass, not a printed value. Like-named read-outs stand apart in the source and are kept apart here.

Broadly, the Solubility is how much of the substance goes into solution per volume. High values mean much dissolved substance, low ones little dissolved substance. Turning to `CCCC[C@@H]1NC(=O)[C@H](CCC(=O)O)NC(=O)[C@H](CC(=O)O)NC(=O)C2(CCCC=CCCCCCC[C@@](C)(C(=O)N[C@@H](Cc3ccccc3)C(=O)N[C@@H](Cc3csc4ccccc34)C(=O)N[C@@H](CCC(N)=O)C(N)=O)NC(=O)[C@H](CCC(N)=O)NC(=O)[C@H](Cc3ccccc3)NC(=O)[C@H](C)NC1=O)CCCC=CC[C@]1(CCCN1C(C)=O)C(=O)N[C@@H](CC(=O)O)C(=O)N[C@@H]([C@@H](C)CC)C(=O)N2` (stereo partly drawn) [I-656, Ac-PL3-Asp-Ile-B5-Asp-Glu-nLeu-Ala-Phe-Gln-S8-Phe-BztA-Gln-NH2], the IC50 in series [1] (setting [2]) and in series [1] (read-out: FP EC50) was 73 nM in each case. For the same molecule, in “CHI Log D procedure”, the “CHI Log D” value amounted to 2.736. Also, the “Solubility” value in “Solubility in PBS” amounted to 40 µM (≈ 77 µg/mL).
As to `CCCC[C@@H]1NC(=O)[C@H](CCC(=O)O)NC(=O)[C@H](CC(=O)O)NC(=O)C2(CCCC=CCCCCCC[C@@](C)(C(=O)N[C@@H](Cc3ccccc3)C(=O)N[C@@H](Cc3csc4ccccc34)C(=O)N[C@@H](CCC(N)=O)C(N)=O)NC(=O)[C@H](CCC(N)=O)NC(=O)[C@H](Cc3ccccc3)NC(=O)[C@H](C)NC1=O)CCCC=CC[C@]1(CCCN1C(C)=O)C(=O)N[C@@H](CC(=O)O)C(=O)N[C@@H]([C@@H](C)CC)C(=O)N2` (stereo partly drawn) [I-657, Ac-PL3-Asp-Ile-B5-Asp-Glu-nLeu-Ala-Phe-Gln-S8-Phe-BztA-Gln-NH2], the IC50 in series [1] (setting [2]) and in series [1] (read-out: FP EC50) was 46 nM each time. Also, in “CHI Log D procedure”, the “CHI Log D” value is recorded as 2.767. In addition, in the series “Solubility in PBS”, the “Solubility” value worked out at 40 µM (≈ 77 µg/mL).
As for `CC[C@H](C)[C@@H]1NC(=O)[C@H](CC(=O)O)NC(=O)[C@]2(CC=CCCCC3(CCCC=CCCCCCC[C@@](C)(C(=O)N[C@@H](Cc4ccccc4)C(=O)N[C@@H](Cc4csc5ccccc45)C(=O)N[C@@H](CCC(N)=O)C(N)=O)NC(=O)[C@H](CCC(N)=O)NC(=O)[C@H](Cc4ccccc4)NC(=O)[C@H](CC(C)C)NC(=O)[C@H](C)NC(=O)[C@H](CCC(=O)O)NC(=O)[C@H](CC(=O)O)NC3=O)NC1=O)CCCN2C(C)=O` (stereo partly drawn) [I-658, Ac-PL3-Asp-Ile-B5-Asp-Glu-Ala-Leu-Phe-Gln-S8-Phe-BztA-Gln-NH2], the IC50 in series [1] (setting [2]) and in series [1] (read-out: FP EC50) was 546 nM each time. For the same molecule, the “CHI Log D” value in the series “CHI Log D procedure” was found to be 2.859. Moreover, the “Solubility” value in the series “Solubility in PBS” stood at 48 µM (≈ 92.4 µg/mL).
Regarding `CC[C@H](C)[C@@H]1NC(=O)[C@H](CC(=O)O)NC(=O)[C@]2(CC=CCCCC3(CCCC=CCCCCCC[C@@](C)(C(=O)N[C@@H](Cc4ccccc4)C(=O)N[C@@H](Cc4csc5ccccc45)C(=O)N[C@@H](CCC(N)=O)C(N)=O)NC(=O)[C@H](CCC(N)=O)NC(=O)[C@H](Cc4ccccc4)NC(=O)[C@H](CC(C)C)NC(=O)[C@H](C)NC(=O)[C@H](CCC(=O)O)NC(=O)[C@H](CC(=O)O)NC3=O)NC1=O)CCCN2C(C)=O` (stereo partly drawn) [I-659, Ac-PL3-Asp-Ile-B5-Asp-Glu-Ala-Leu-Phe-Gln-S8-Phe-BztA-Gln-NH2], the IC50 in series [1] (setting [2]) and in series [1] (read-out: FP EC50) was 430 nM throughout. The “CHI Log D” value in the series “CHI Log D procedure” worked out at 2.903. Also, the “Solubility” value in “Solubility in PBS” was found to be 48 µM (≈ 92.4 µg/mL).
Usually chromatographic logD stands for lipophilicity estimated from chromatographic retention. As to `CC[C@H](C)[C@@H]1NC(=O)[C@H](CC(=O)O)NC(=O)[C@]2(CC=CCCCC3(CCCC=CCCCCCC[C@@](C)(C(=O)N[C@@H](Cc4ccccc4)C(=O)N[C@@H](Cc4csc5ccccc45)C(=O)N[C@@H](CCC(N)=O)C(N)=O)NC(=O)[C@H](CCC(N)=O)NC(=O)[C@H](Cc4ccccc4)NC(=O)[C@H](Cc4ccccc4)NC(=O)[C@H](C)NC(=O)[C@H](CCC(=O)O)NC(=O)[C@H](CC(=O)O)NC3=O)NC1=O)CCCN2C(C)=O` (stereo partly drawn) [I-660, Ac-PL3-Asp-Ile-B5-Asp-Glu-Ala-Phe-Phe-Gln-S8-Phe-BztA-Gln-NH2], the IC50 in series [1] (setting [2]) turned out to be 544 nM. Besides, the chromatographic logD in the series “CHI Log D procedure” is 2.75. The molecule also displayed a Solubility in “Solubility in PBS” (Solubility (uM)) of 45 µM (≈ 88.2 µg/mL).
With `CC[C@H](C)[C@@H]1NC(=O)[C@H](CC(=O)O)NC(=O)[C@]2(CC=CCCCC3(CCCC=CCCCCCC[C@@](C)(C(=O)N[C@@H](Cc4ccccc4)C(=O)N[C@@H](Cc4csc5ccccc45)C(=O)N[C@@H](CCC(N)=O)C(N)=O)NC(=O)[C@H](CCC(N)=O)NC(=O)[C@H](Cc4ccccc4)NC(=O)[C@H](CO)NC(=O)[C@H](C)NC(=O)[C@H](CCC(=O)O)NC(=O)[C@H](CC(=O)O)NC3=O)NC1=O)CCCN2C(C)=O` (stereo partly drawn) [I-661, Ac-PL3-Asp-Ile-B5-Asp-Glu-Ala-Ser-Phe-Gln-S8-Phe-BztA-Gln-NH2], the IC50 in series [1] (setting [2]) and in series [1] (read-out: FP EC50) was 45 nM in each case. In “CHI Log D procedure”, the “CHI Log D” value is listed as 2.099. Further, the “Solubility” value in “Solubility in PBS” was 45 µM (≈ 85.5 µg/mL).
Regarding `CC[C@H](C)[C@@H]1NC(=O)[C@H](CC(=O)O)NC(=O)[C@]2(CC=CCCCC3(CCCC=CCCCCCC[C@@](C)(C(=O)N[C@@H](Cc4ccccc4)C(=O)N[C@@H](Cc4csc5ccccc45)C(=O)N[C@@H](CCC(N)=O)C(N)=O)NC(=O)[C@H](CCC(N)=O)NC(=O)[C@H](Cc4ccccc4)NC(=O)[C@H](CCC(N)=O)NC(=O)[C@H](C)NC(=O)[C@H](CCC(=O)O)NC(=O)[C@H](CC(=O)O)NC3=O)NC1=O)CCCN2C(C)=O` (stereo partly drawn) [I-663, Ac-PL3-Asp-Ile-B5-Asp-Glu-Ala-Gln-Phe-Gln-S8-Phe-BztA-Gln-NH2], the IC50 in series [1] (setting [2]) worked out at 43 nM. In the series “CHI Log D procedure”, this molecule displayed a chromatographic logD of 1.8. For the same molecule, in “Solubility in PBS” (Solubility (uM)), the Solubility came out at 42 µM (≈ 81.5 µg/mL).
Regarding `CC[C@H](C)[C@@H]1NC(=O)[C@H](CC(=O)O)NC(=O)[C@]2(CC=CCCCC3(CCCC=CCCCCCC[C@@](C)(C(=O)N[C@@H](Cc4ccccc4)C(=O)N[C@@H](Cc4csc5ccccc45)C(=O)N[C@@H](CCC(N)=O)C(N)=O)NC(=O)[C@H](CCC(N)=O)NC(=O)[C@H](Cc4ccccc4)NC(=O)[C@H](Cc4c[nH]c5ccccc45)NC(=O)[C@H](C)NC(=O)[C@H](CCC(=O)O)NC(=O)[C@H](CC(=O)O)NC3=O)NC1=O)CCCN2C(C)=O` (stereo partly drawn) [I-664, Ac-PL3-Asp-Ile-B5-Asp-Glu-Ala-Trp-Phe-Gln-S8-Phe-BztA-Gln-NH2], the IC50 in series [1] (setting [2]) and in series [1] (read-out: FP EC50) was 996 nM throughout. In the series “CHI Log D procedure”, the “CHI Log D” value came to 2.433. The “Solubility” value in the series “Solubility in PBS” stood at 45 µM (≈ 89.9 µg/mL).
As to `CC[C@H](C)[C@@H]1NC(=O)[C@H](CC(=O)O)NC(=O)[C@]2(CC=CCCCC3(CCCC=CCCCCCC[C@@](C)(C(=O)N[C@@H](Cc4ccccc4)C(=O)N[C@@H](Cc4csc5ccccc45)C(=O)N[C@@H](CCC(N)=O)C(N)=O)NC(=O)[C@H](CCC(N)=O)NC(=O)[C@H](Cc4ccccc4)NC(=O)[C@H](Cc4c[nH]c5ccccc45)NC(=O)[C@H](C)NC(=O)[C@H](CCC(=O)O)NC(=O)[C@H](CC(=O)O)NC3=O)NC1=O)CCCN2C(C)=O` (stereo partly drawn) [I-665, Ac-PL3-Asp-Ile-B5-Asp-Glu-Ala-Trp-Phe-Gln-S8-Phe-BztA-Gln-NH2], the IC50 in series [1] (setting [2]) and in series [1] (read-out: FP EC50) was 923 nM throughout. Further, the “CHI Log D” value in “CHI Log D procedure” came to 2.448. Also, the “Solubility” value in the series “Solubility in PBS” is 47 µM (≈ 93.9 µg/mL).
In the case of `CC(=O)N1CCC[C@]12CC=CCCCC1(CCCC=CCCCCCC[C@@](C)(C(=O)N[C@@H](Cc3ccsc3)C(=O)N[C@@H](Cc3csc4ccccc34)C(=O)N[C@@H](CCC(N)=O)C(N)=O)NC(=O)[C@H](CC(N)=O)NC(=O)[C@H](Cc3ccccc3)NC(=O)[C@H](C)NC(=O)[C@H](C)NC(=O)[C@H](CCC(=O)O)NC(=O)[C@H](CC(=O)O)NC1=O)NC(=O)[C@H](CC(C)(C)C)NC(=O)[C@H](CC(=O)O)NC2=O` (stereo partly drawn) [I-682, Ac-PL3-Asp-Npg-B5-Asp-Glu-Ala-Ala-Phe-Asn-S8-3Thi-BztA-Gln-NH2], the IC50 in series [1] (setting [2]) and in series [1] (read-out: FP EC50) was 41 nM throughout. Besides, the “CHI Log D” value in “CHI Log D procedure” was 2.409. Besides, in “Solubility in PBS”, the “Solubility” value was found to be 47 µM (≈ 88.8 µg/mL).
